Structures are written as SMILES. Where a name gives a salt, the structure may show the parent alone. Some results are limits rather than exact numbers.

One may read the CC50 as the concentration at which the toxic effect on the cells reaches its halfway point. As usually defined, the IC50 is the concentration at which inhibition is half-maximal. A lower IC50 goes with greater potency in that assay. As a reminder, the melting point is the temperature of the solid-liquid transition.

The first data set has as its system mock-infected MT-4 cells. The data set is described as follows: cytotoxicity in mock-infected MT-4 cells (MTT). In kind it is cell-based.
Details: not given
For `Cc1cc(C(C)(C)C)cc(C)c1Nc1nc(Nc2ccc(C#N)cc2)ncc1Cl` [Compound 12], the CC50 worked out at 48.5 µM.

For the molecule `N#Cc1ccc(Nc2ncc(Cl)c(Nc3c(F)cc(Br)cc3Br)n2)cc1` [Compound 11], the midpoint of cytotoxicity, the CC50, lay at 0.4 µM.

Take `Cc1cc(Br)cc(Cl)c1Oc1nc(Nc2ccc(C#N)cc2)ncc1Cl` [Compound 15]: the CC50 is more than 100 µM.

In the case of `Cc1cc(C#N)cc(C)c1Nc1nc(Nc2ccc(C#N)cc2)ncc1Cl` [Compound 13], the CC50 came out at 0.4 µM.

In turn, `Cc1cc(C#N)cc(C)c1Oc1nc(N(COC(=O)C(C)(C)C)c2ccc(C#N)cc2)ncc1Br` [Compound 60] returned a CC50 of 74.5 µM.

The molecule `Cc1cc(C)c(Sc2nc(Nc3ccc(C#N)cc3)ncc2Cl)c(C)c1` [Compound 7] had a CC50 of more than 100 µM.

`Cc1cc(C#N)cc(C)c1Oc1nc(Nc2ccc(C#N)cc2)ncc1Cl` [Compound 18] showed a CC50 of more than 10 µM.

As for `Cc1cc(Br)cc(C)c1Oc1nc(Nc2ccc(C#N)cc2)ncc1Cl` [Compound 8], the CC50 is more than 100 µM.

As for `Cc1cc(Cl)cc(C)c1Oc1nc(Nc2ccc(C#N)cc2)ncc1Cl` [Compound 16], the CC50 was more than 100 µM.

`Cc1cc(Br)cc(C)c1Nc1nc(Nc2ccc(C#N)cc2)ncc1Cl` [Compound 9]: the CC50 worked out at 1.2 µM.

Test system in the next data set: not listed separately
The data set is described as follows: cytotoxicity in mock-infected MT-4 cells (MTT). Format: cell-based. The settings on record: human, mock-infected MT-4 cells; concentration reducing absorbance of mock-infected MT-4 control by 50%; MTT.
Regarding `Cc1cc(C#N)cc(C)c1Oc1nc(Nc2ccc(C#N)cc2)nc(N)c1Br` [Compound 46, 4-[[4-amino-5-bromo-6-(4-cyano-2,6-dimethylphenyloxy)-2-pyrimidinyl]amino]benzonitrile], the half-maximal cytotoxic concentration (CC50) was more than 200 µM.

Consider `COC(=O)COCC(=O)N(c1ccc(C#N)cc1)c1ncc(Br)c(Oc2c(C)cc(C#N)cc2C)n1` [Compound 61], for which the CC50 is more than 100 µM.

As for `Cc1cc(C)c(Nc2nc(Nc3ccc(C#N)cc3)nc(N)c2Cl)c(C)c1.O=C(O)C(F)(F)F` [Compound 4, 4-[[4-amino-5-chloro-6-[(2,4,6-trimethylphenyl)amino]-2-pyrimidinyl]amino]benzonitrile trifluoroacetate (1:1)], half-maximal cytotoxicity (CC50) was put at 10 µM.

In the case of `Cc1cc(C)c(Nc2ncc(Br)c(Nc3ccc(C#N)cc3)n2)c(C)c1` [Compound 2, 4-[[5-bromo-2-[(2,4,6-trimethylphenyl)amino]-4-pyrimidinyl]amino]benzonitrile], the CC50 came out at 82.6 µM.

Molecule `Cc1cc(C)c(Nc2nc(Nc3ccc(C#N)cc3)ncc2Br)c(C)c1` [Compound 3, 4-[[5-bromo-4-[(2,4,6-trimethylphenyl)amino]-2-pyrimidinyl]amino]benzonitrile] yielded a CC50 of 4.4 µM.

Molecule `Cc1cc(Br)c(Nc2nc(Nc3ccc(C#N)cc3)ncc2Cl)c(Br)c1` [Compound 10, 4-[[5-chloro-4-[(2,6-dibromo-4-methylphenyl)amino]-2-pyrimidinyl]amino]benzonitrile] showed a CC50 of 0.4 µM.

With `Cc1cc(C)c(Nc2ncc(Cl)c(Nc3ccc(C#N)cc3)n2)c(C)c1` [Compound 1, 4-[[5-chloro-2-[(2,4,6-trimethylphenyl)amino]-4-pyrimidinyl]amino]benzonitrile], the CC50 came out at 10.9 µM.

Take `Cc1cc(C#N)cc(C)c1Oc1nc(Nc2ccc(C#N)cc2)ncc1Br` [Compound 17, 4-[[5-bromo-4-(4-cyano-2,6-dimethylphenoxy)-2-pyrimidinyl]amino]benzonitrile]: the CC50 is more than 10 µM.

As for `Cc1cc(C)c(Nc2nc(Nc3ccc(C#N)cc3)ncc2Cl)c(C)c1` [Compound 5, 4-[[5-chloro-4-[(2,4,6-trimethylphenyl)amino]-2-pyrimidinyl]amino]benzonitrile], the half-maximal cytotoxic concentration (CC50) is 0.4 µM.

Molecule `Cc1cc(C)c(Oc2nc(Nc3ccc(C#N)cc3)ncc2Cl)c(C)c1` [Compound 6, 4-[[5-chloro-4-(2,4,6-trimethylphenoxy)-2-pyrimidinyl]amino]benzonitrile] returned a CC50 of more than 100 µM.

The next data set relates to HIV-1.
Assay: not given
The conditions noted are these: dose achieving 50% protection of HIV-infected MT-4 cells against cytopathic effect; MTT, OD 540 nm. For orientation: Damage to the host cells serves as the signal in cytopathic effect assays.
With `Cc1cc(C#N)cc(C)c1Oc1nc(N(COC(=O)C(C)(C)C)c2ccc(C#N)cc2)ncc1Br` [Compound 60], it took 0.002 µM to reach half-maximal inhibition (IC50).

The same data set, now with this note: ratio of CC50 to IC50.
On to `COC(=O)COCC(=O)N(c1ccc(C#N)cc1)c1ncc(Br)c(Oc2c(C)cc(C#N)cc2C)n1` [Compound 61], for which the “SI (selectivity index)” value was more than 52631.

In another data set the test system is HIV-1. The experiment in a line: microbe, parasite or virus in culture. The settings on record: Human immunodeficiency virus 1, MT4.
Procedure: A rapid, sensitive and automated assay procedure was used for the in vitro evaluation of anti-HIV agents. […] Inhibition of the HIV-induced cytopathic effect was used as the end point. […] The percent protection achieved by the compound in HIV-infected cells was calculated by the following formula:
[formula] whereby (ODT)HIV is the optical density measured with a given concentration of the test compound in HIV-infected cells; (ODC)HIV is the optical density measured for the control untreated HIV-infected cells; (ODC)MOCK is the optical density measured for the control untreated mock-infected cells; all optical density values were determined at 540 nm. […] The ratio of CC50 to IC50 was defined as the selectivity index (SI).
As for `COC(=O)COCC(=O)N(c1ccc(C#N)cc1)c1ncc(Br)c(Oc2c(C)cc(C#N)cc2C)n1` [Compound 61], it took 0.002 µM to reach half-maximal inhibition (IC50).

Test system in a further data set: not given
Assay: not given
Details: not given
As for `Cc1cc(C)c(Nc2nc(Nc3ccc(C#N)cc3)ncc2-c2ccccc2)c(C)c1` [Compound 53, 4-[[5-phenyl-4-[(2,4,6-trimethylphenyl)amino]-2-pyrimidinyl]amino]benzonitrile], the melting point was in the range of 209 to 214 °C.

On to `Cc1cc(C#N)cc(C)c1Oc1nc(Nc2ccc(C#N)cc2)nc(NCCN2CCCC2)c1Br.Cl`, for which the melting point lay in the range of 208 to 210 °C.

The molecule `C#Cc1cnc(Nc2ccc(C#N)cc2)nc1Nc1c(C)cc(C)cc1C` [Compound 52, 4-[[5-ethynyl-4-[(2,4,6-trimethylphenyl)amino]-2-pyrimidinyl]amino]benzonitrile] showed a melting point of 165 to 175 °C.

Take `Cc1cc(C)c(Nc2nc(Nc3ccc(C#N)cc3)nc(Cl)c2Br)c(C)c1` [Compound 41, 4-[[5-bromo-4-chloro-6-[(2,4,6-trimethylphenyl)amino]-2-pyrimidinyl]amino]benzonitrile]: the melting point was in the range of 220 to 221 °C.

The molecule `Cc1cc(C#N)cc(C)c1Oc1nc(Nc2ccc(C#N)cc2)nc(C)c1Br` [Compound 44, 4-[[5-bromo-4-(4-cyano-2,6-dimethylphenoxy)-6-methyl-2-pyrimidinyl]amino]benzonitrile] had a melting point of 260 to 262 °C.

`Cc1cc(C#N)cc(C)c1Oc1nc(Nc2ccc(C#N)cc2)ncc1N` [Compound 50, 4-[[5-amino-4-(4-cyano-2,6-dimethylphenoxy)-2-pyrimidinyl]amino]benzonitrile]: the melting point was more than 300 °C.

With `C=Cc1cnc(Nc2ccc(C#N)cc2)nc1Nc1c(C)cc(C)cc1C` (as salt: trifluoroacetate) [Compound 54, 4-[[5-ethenyl-4-[(2,4,6-trimethylphenyl)amino]-2-pyrimidinyl]amino]benzonitrile], the melting point fell in the range of 237 to 242 °C.

On to `Cc1cc(C)c(Nc2nc(Nc3ccc(C#N)cc3)ncc2N)c(C)c1` (as salt: trifluoroacetate) [Compound 51, 4-[[5-amino-4-[(2,4,6-trimethylphenyl)amino]-2-pyrimidinyl]amino]benzonitrile], for which the melting point lay in the range of 224 to 225 °C.

`Cc1cc(C#N)cc(C)c1Nc1nc(Nc2ccc(C#N)cc2)ncc1Br` [Compound 45, 4-[[5-bromo-6-[(4-cyano-2,6-dimethylphenyl)amino]-2-pyrimidinyl]amino]benzonitrile] yielded a melting point of 277 to 280 °C.

`CONc1nc(Nc2ccc(C#N)cc2)nc(Oc2c(C)cc(C#N)cc2C)c1Br` [Compound 48, 4-[[5-bromo-4-(4-cyano-2,6-dimethylphenoxy)-6-(methoxyamino)-2-pyrimidinyl]amino]benzonitrile] showed a melting point of 185 to 186 °C.

In turn, `Cc1cc(C#N)cc(C)c1Nc1nc(Nc2ccc(C#N)cc2)nc(Cl)c1Br` [Compound 42, 4-[[5-bromo-4-chloro-6-[(4-cyano-2,6-dimethylphenyl)amino]-2-pyrimidinyl]amino]benzonitrile] came in with a melting point of 259 to 260 °C.
